The source made the active and inactive calls.
Tests used:
[1] = target: Protein-tyrosine kinase 2-beta (Homo sapiens, UniProt Q14289);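 further: potency of inhibitors of PYK2 kinase phosphorylation of poly-GT substrate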
NADPH oxidase 1 [2] = target: T1, NADPH oxidase 1 (Homo sapiens, UniProt Q9Y5S8); assay: Late-stage luminescence-based cell-based dose response assay to identify inhibitors of NADPH oxidase 1 (NOX1): Synthesized analogs.; format: functional
T1 sequence (Q9Y5S8 whole entry): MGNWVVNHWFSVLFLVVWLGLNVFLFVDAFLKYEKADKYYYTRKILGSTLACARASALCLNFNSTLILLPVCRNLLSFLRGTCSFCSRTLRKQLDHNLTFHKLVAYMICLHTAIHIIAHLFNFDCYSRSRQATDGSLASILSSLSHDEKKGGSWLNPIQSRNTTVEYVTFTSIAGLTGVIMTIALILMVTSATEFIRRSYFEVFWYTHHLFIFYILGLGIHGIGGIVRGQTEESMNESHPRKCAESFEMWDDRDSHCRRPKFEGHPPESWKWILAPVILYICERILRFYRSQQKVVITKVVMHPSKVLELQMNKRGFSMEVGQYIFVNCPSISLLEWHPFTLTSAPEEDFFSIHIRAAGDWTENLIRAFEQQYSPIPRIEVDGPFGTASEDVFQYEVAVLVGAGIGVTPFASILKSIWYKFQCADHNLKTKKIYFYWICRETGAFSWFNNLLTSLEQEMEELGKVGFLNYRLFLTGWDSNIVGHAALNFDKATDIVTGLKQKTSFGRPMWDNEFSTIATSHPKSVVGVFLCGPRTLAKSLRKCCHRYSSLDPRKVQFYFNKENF

NADPH oxidase 1 [3] = target: T1, NADPH oxidase 1; assay: Luminescence-based cell-based dose response assay to identify inhibitors of NADPH oxidase 1 (NOX1).; format: functional
[4] = target: Epstein-Barr nuclear antigen 1 (Epstein-Barr virus (strain B95-8) (HHV-4) (Human herpesvirus 4), UniProt P03211); assay: EBNA-1 inhibitors, dose response, biochemical, fluorescence polarization, 1536-well (AID 2381); set-up: species or system human gammaherpesvirus 4;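 further: fluorescence polarization of a Cy5 DNA probe bound by EBNA-1 protein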
[5] = target: Lytic switch protein BZLF1 (Epstein-Barr virus (strain B95-8) (HHV-4) (Human herpesvirus 4), UniProt P03206); assay: EBV ZTA inhibitors, dose response, counter-screen for EBNA-1 inhibitor project, biochemical, fluorescence polarization, Epstein-Barr virus, 1536-well (AID 2377); set-up: species or system human gammaherpesvirus 4;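 further: fluorescence polarization of Cy5-labelled ZRE DNA probe bound by purified Zta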
[6] = target: Glyceraldehyde-3-phosphate dehydrogenase (Homo sapiens, UniProt P04406)
Bcl-2-related protein A1 [7] = target: T2, Bcl-2-related protein A1 (Mus musculus, UniProt Q07440); assay: Bfl-1 inhibitors blocking BH3 peptide binding, confirmation, biochemical, TR-FRET, mouse Bfl-1 (AID 621);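 further: TR-FRET binding of GST-Bfl-1 to FITC-labelled Bid peptide via terbium antibody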
T2 sequence (Q07440 whole entry): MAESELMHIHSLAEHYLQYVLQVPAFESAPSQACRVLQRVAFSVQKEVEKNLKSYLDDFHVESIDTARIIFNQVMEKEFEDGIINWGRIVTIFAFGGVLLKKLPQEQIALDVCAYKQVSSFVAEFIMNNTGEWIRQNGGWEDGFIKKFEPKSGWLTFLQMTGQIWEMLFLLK

Bcl-2-related protein A1 [8] = target: T2, Bcl-2-related protein A1; assay: Bfl-1 binding inhibitors, SAR follow-up, biochemical, fluorescence polarization (AID 1070)
Mucolipin-3 = Mucolipin-3 (Homo sapiens, UniProt Q8TDD5); assay: Dose response cell-based high-throughput screening assay for agonists of the transient receptor potential channel ML3 (TRPML3). [Related pubchem assays: 1526, 1424, 1448 ]; format: functional
Ion channel NompC = Ion channel NompC (Danio rerio, UniProt Q7T1G6); assay: Fluorescence counterscreen assay for TRPML3 agonists: dose response cell-based high-throughput screening assay to identify agonists of the transient receptor potential channel N1 (TRPN1). [Related pubchem assays: 1526, 1424, 1448 ]; format: functional
[9] = target: T3, Polyadenylate-binding protein 1 (Homo sapiens, UniProt P11940); assay: PABP1 MLLE–PAM2 interaction inhibitors, dose response, miRNA deadenylation inhibitor project, biochemical, fluorescence polarization, Cy5-PAM2 peptide, secondary (AID 602260); format: functional; conditions: read-out: IC50_Mean
[10] = target: T3, Polyadenylate-binding protein 1; assay: PABP1 MLLE–PAM2 binding inhibitor potency, dose response, biochemical, fluorescence polarization, FITC-PAM2 peptide (AID 602259); format: functional; conditions: read-out: IC50_Mean
[11] = A High Throughput Confirmatory Assay used to Identify Novel Compounds that Inhibit Mycobacterium Tuberculosis in the absence of Glycerol.; format: functional

T3 sequence (P11940 whole entry): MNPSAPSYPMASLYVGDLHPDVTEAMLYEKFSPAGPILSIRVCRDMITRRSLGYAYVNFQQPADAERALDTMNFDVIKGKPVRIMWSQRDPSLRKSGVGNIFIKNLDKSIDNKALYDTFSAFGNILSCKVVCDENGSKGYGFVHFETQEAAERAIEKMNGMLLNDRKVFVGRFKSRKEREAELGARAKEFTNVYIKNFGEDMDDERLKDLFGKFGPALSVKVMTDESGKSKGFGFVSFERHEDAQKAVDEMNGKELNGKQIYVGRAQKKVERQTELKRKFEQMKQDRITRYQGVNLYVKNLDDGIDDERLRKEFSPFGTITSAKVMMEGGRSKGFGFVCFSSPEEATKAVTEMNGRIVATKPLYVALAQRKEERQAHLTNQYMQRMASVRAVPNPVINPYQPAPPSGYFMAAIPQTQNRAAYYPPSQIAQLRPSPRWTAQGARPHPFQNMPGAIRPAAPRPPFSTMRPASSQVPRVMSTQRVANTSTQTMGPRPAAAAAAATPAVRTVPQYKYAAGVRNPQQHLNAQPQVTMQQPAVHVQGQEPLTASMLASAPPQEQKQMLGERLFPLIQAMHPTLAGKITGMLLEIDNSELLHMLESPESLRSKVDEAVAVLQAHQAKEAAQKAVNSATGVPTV
Sequence of Protein-tyrosine kinase 2-beta (Q14289 whole entry): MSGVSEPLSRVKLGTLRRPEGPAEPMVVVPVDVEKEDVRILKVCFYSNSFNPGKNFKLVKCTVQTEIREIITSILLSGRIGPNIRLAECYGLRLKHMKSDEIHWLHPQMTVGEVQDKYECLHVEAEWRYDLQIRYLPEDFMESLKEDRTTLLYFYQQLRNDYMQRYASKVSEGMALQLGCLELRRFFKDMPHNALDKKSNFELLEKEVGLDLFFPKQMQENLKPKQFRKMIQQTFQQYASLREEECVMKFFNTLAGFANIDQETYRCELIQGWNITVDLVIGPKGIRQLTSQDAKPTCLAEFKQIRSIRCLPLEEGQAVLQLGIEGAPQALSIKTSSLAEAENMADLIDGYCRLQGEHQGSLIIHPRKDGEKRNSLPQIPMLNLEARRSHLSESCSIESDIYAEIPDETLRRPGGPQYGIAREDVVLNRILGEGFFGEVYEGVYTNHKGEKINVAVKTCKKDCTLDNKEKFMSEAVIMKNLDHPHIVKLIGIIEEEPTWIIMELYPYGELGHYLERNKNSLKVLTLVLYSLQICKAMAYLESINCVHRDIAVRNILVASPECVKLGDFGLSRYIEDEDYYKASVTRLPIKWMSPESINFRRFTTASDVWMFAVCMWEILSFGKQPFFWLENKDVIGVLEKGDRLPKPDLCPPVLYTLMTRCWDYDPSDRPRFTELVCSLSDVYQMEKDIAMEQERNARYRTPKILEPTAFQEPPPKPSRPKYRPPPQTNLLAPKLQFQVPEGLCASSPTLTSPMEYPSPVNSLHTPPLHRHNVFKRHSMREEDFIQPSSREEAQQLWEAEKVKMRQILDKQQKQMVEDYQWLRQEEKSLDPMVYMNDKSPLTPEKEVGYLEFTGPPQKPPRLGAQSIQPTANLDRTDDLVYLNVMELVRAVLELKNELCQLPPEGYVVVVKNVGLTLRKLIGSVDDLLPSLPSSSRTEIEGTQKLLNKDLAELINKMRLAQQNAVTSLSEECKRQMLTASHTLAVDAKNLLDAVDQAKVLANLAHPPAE
Sequence of Epstein-Barr nuclear antigen 1 (P03211 whole entry): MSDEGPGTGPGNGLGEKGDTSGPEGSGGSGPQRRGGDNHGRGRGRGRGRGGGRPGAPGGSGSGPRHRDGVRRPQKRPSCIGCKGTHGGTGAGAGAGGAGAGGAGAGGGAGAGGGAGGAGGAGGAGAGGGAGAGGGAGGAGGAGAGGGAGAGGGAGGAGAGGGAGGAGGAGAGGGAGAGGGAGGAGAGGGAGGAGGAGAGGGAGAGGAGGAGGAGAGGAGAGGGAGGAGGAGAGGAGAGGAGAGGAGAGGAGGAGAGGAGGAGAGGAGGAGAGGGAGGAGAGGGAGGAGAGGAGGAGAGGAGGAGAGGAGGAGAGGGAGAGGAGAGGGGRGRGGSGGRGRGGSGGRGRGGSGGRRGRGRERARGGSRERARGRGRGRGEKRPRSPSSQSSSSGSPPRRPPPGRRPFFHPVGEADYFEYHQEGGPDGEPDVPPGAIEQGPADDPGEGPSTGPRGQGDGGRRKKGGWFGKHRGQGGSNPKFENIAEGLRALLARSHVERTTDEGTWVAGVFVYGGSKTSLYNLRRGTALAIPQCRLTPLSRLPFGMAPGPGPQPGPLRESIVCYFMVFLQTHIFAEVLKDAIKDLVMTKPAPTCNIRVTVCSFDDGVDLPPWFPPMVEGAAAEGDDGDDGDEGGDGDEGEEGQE
Sequence of Mucolipin-3 (Q8TDD5 whole entry): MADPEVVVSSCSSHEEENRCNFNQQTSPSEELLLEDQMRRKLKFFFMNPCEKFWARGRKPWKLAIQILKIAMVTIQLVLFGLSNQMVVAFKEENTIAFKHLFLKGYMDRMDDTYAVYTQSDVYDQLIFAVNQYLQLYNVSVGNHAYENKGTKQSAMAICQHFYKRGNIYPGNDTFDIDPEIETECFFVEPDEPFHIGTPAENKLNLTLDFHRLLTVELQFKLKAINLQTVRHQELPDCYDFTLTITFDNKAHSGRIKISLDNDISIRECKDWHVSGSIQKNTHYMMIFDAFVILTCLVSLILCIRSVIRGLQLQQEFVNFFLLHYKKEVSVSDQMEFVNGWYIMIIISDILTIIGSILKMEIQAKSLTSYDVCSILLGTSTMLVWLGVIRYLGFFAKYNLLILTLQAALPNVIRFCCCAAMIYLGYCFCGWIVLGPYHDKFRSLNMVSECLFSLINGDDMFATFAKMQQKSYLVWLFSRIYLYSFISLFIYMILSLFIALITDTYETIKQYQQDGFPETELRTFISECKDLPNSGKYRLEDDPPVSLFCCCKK
Sequence of Ion channel NompC (Q7T1G6 whole entry): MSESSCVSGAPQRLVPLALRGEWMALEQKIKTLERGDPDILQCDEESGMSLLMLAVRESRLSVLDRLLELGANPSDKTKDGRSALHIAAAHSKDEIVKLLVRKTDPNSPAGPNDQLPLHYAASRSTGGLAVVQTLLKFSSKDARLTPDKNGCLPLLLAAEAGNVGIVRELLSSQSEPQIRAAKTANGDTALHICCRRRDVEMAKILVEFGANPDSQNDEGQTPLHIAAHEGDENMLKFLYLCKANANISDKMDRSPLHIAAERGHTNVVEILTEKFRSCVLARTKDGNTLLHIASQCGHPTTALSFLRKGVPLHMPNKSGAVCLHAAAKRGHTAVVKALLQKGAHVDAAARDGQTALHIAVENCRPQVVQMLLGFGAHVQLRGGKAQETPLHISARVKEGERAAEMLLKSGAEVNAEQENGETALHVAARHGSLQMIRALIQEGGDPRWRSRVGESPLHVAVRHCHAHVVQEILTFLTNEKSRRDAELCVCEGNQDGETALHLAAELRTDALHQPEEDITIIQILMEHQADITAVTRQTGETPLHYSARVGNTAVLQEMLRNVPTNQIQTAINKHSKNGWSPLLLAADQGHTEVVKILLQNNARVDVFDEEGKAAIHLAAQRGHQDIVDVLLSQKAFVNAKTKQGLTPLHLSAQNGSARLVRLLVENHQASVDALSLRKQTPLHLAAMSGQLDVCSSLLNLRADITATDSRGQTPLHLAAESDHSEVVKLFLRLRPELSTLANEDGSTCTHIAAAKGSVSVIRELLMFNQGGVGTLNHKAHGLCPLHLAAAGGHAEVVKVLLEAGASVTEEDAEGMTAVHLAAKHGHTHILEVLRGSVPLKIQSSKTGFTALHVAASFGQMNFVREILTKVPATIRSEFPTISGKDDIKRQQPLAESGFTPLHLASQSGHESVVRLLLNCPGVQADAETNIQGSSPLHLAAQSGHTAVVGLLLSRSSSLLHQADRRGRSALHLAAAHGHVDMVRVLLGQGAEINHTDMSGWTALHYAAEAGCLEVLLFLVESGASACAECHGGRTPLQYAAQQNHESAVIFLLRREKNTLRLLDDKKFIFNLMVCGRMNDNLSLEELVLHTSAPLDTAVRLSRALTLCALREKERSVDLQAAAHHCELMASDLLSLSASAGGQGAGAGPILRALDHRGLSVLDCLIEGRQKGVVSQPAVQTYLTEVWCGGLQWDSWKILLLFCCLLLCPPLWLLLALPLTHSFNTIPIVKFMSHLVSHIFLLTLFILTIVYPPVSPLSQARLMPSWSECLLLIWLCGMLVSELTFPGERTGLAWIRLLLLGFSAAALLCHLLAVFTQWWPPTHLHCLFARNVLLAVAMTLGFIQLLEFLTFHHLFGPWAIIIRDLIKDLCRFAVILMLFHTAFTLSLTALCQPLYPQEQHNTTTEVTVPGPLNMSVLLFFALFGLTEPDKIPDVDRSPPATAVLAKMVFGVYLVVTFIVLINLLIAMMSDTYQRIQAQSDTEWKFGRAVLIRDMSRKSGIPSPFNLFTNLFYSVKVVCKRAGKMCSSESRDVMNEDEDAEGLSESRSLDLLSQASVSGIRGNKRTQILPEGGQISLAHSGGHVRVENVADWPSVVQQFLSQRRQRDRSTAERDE
Sequence of Lytic switch protein BZLF1 (P03206 whole entry): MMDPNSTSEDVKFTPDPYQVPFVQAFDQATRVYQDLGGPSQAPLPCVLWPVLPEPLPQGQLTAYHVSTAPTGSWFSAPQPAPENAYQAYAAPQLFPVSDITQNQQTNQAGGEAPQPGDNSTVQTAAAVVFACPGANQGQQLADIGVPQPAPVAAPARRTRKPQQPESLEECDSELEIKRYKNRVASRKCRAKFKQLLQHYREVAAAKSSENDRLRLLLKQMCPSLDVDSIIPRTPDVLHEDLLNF
Sequence of Glyceraldehyde-3-phosphate dehydrogenase (P04406 whole entry): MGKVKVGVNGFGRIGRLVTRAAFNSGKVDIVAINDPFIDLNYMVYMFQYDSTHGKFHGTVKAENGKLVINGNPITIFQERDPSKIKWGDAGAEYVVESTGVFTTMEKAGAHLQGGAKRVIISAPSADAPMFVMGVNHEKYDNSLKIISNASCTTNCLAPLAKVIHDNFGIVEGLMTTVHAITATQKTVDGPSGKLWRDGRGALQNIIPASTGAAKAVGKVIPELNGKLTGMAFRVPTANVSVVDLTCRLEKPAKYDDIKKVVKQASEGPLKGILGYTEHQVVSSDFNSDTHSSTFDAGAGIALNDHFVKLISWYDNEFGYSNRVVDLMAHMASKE

N#Cc1cnn2c1nc(N1CCOCC1)c1ccccc12
IC50 [1]: > 69.5 µM (not active)

O=S1(=O)c2ccccc2Nc2ccccc21
IC50 (NADPH oxidase 1 [2]): > 50 µM (not active) | IC50 (NADPH oxidase 1 [3]): 6.6 µM (active)

Cc1ccccc1OCCn1cc(/C=C(\C#N)C(=O)NCc2ccco2)c2ccccc21
IC50 [4]: 39.9 µM (not active) | IC50 [5]: > 111 µM (not active)

O=C1C(Cl)=C(N2CCOCC2)C(=O)N1c1ccc(Cl)nc1
IC50 [6]: > 100 µM (not active) | IC50 (Bcl-2-related protein A1 [7]): 15.1 µM (active) | IC50 (Bcl-2-related protein A1 [8]): 12.6 µM (active)

O=C1C(Cl)=C(N2CCN(Cc3ccccc3)CC2)C(=O)N1Cc1ccccc1
EC50 (Mucolipin-3): 5.29 µM (active) | EC50 (Ion channel NompC): > 29.9 µM (not active) | IC50 [9]: > 66 µM (inactive) | IC50 [10]: > 66 µM (inactive)

CCc1nc2ccccc2c(C(=O)Nc2cc(C)ccc2C)c1C
IC50 [11]: > 100 µM (active)
